From patent publication US12655041B2, “Method for operating reverse osmosis membrane device, a slime control method, and a water treatment device” (priority 2021, dated 2026)

How the values were obtained:
[1] = tested on: slime in a reverse osmosis membrane; experiment: Test Example 1: evaluation of slime inhibition in reverse osmosis membrane (membrane fouling simulator, days to 100 kPa differential pressure); set-up: species or system microorganism; conditions: days for differential pressure to reach 100 kPa; substrates ethanol 50 mg/L as C, ammonium chloride 10 mg/L as N, sodium dihydrogen phosphate 0.5 mg/L as P; 25° C.; no chemical added: 8
Procedure: (§1) A substrate was added to raw water, and a biofouling effect of a microorganism was accelerated. Specifically, as substrates, ethanol, ammonium chloride and sodium dihydrogen phosphate were added to raw water so that the concentrations reached 50 mg/L as C, 10 mg/L as N and 0.5 mg/L as P, respectively, thereby producing water to be treated. The pH of the raw water (water to be treated) was 6 to 8, TOC was 1 mg/L, ORP was 300 mV, and the water temperature was 25° C.
This water to be treated was pressurized to 1.5 MPa with a pump and supplied as supply water (the water amount was 100 mL/min, the water pressure was 0.2 MPa, and the water temperature was 25° C.) to a concentrate compartment of an RO membrane device, and an RO membrane treatment was performed. […]
(§2) Upon the evaluation of slime inhibition in a reverse osmosis membrane, the number of days taken for the differential pressure to increase up to 100 kPa under conditions shown in Table 1 was measured using a membrane fouling simulator that is in Non-Patent Literature 1 (J. S. Vrouwenvelder et. al.), and the day where this differential pressure was reached was regarded as a day when biofouling occurred, that is, an occlusion day. It is evaluated that, as the number of days taken until this occlusion increases, slime can be inhibited more favorable.

[2] = tested on: slime in a reverse osmosis membrane; experiment: Test Example 4: number of days for the differential pressure to reach 100 kPa; set-up: species or system microorganism; conditions: days for differential pressure to reach 100 kPa; substrates 30 mg/L as C, 10 mg/L as N, 0.5 mg/L as P; 20° C.; no addition: 10
Procedure: as §1
This water to be treated was pressurized to 1.5 MPa with a pump and supplied as supply water (the water amount was 100 mL/min, the water pressure was […], and the water temperature was 25° C.) to a concentrate compartment of an RO membrane device, and an RO membrane treatment was performed. As the RO membrane device, a device in which one vessel was filled with a 4-inch spiral RO membrane element of an aromatic polyamide-based RO membrane (manufactured by Nitto Denko Corporation, ES20) was used. The flow rate of the supply water was 3 to 10 m^3/h per 8-inch spiral module. A change in the differential pressure means a change in the difference of the pressure at each water-passing time after the beginning of measurement from 0 kPa that is a set pressure at the time of the beginning of the measurement.
as §2
A test was performed under the same conditions as in <Test Example 1> except that water to be treated prepared by adding, as substrates, ethanol, ammonium chloride and sodium dihydrogen phosphate to raw water so that the concentrations reached 30 mg/L as C, 10 mg/L as N and 0.5 mg/L as P, respectively, was used, the water temperature of the water to be treated was set and adjusted to 20° C., and the addition periods and addition concentrations of the slime inhibitors were set as shown in Table 2.
The oxidation-based slime inhibitor is continuously added “for 30 minutes”, and the water to be treated containing the chemical is continuously passed through the RO membrane device downstream thereof “for 30 minutes”.
The organic-based slime inhibitor is continuously added “for 30 minutes”, and the water to be treated containing the chemical is continuously passed through the RO membrane device downstream thereof “for 30 minutes”. […]

Cn1sc(Cl)cc1=O [1-3, 5-chloro-2-methyl-4-isothiazolin-3-one]
Number of days until occlusion [1]: 15 days

O=S(=O)([O-])NCl.[Na+] [4-2, Sodium monochlorosulfamate]
Number of days until occlusion [2]: 12 days

O=S(=O)([O-])NCl.[Na+] [4-3, Sodium monochlorosulfamate]
Number of days until occlusion [2]: 30 days

Cn1sc(Cl)cc1=O [4-4, 5-chloro-2-methyl-4-isothiazolin-3-one]
Number of days until occlusion [2]: 32 days

Cn1sc(Cl)cc1=O [4-5, 5-chloro-2-methyl-4-isothiazolin-3-one]
Number of days until occlusion [2]: 18 days

O=S(=O)([O-])NCl.[Na+] [Comparative Example 1-2, Sodium monochlorosulfamate]
Number of days until occlusion [1]: 12 days
